This passage reports IC50 results from patent publication US20260297080A1, “BICYCLIC COMPOUNDS AS CDK INHIBITORS” (BeOne Medicines I GmbH, priority 2022, published 2026).

Test [1] concerns the target CDK2/Cyclin E1 (Homo sapiens, UniProt P24941). Kind of test: CDK2/Cyclin E1 Biochemical Assay (TR-FRET), 0.060 mM ATP. The conditions noted are these: 0.15 μM Rb (Ser780)-biotin substrate, pH7.0, 60 min preincubation, 120 min reaction, room temperature. In a few lines: (§1)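 TR-FRET assay with 0.15 μM Rb (Ser780)-biotin substrate and 0-10 μM compound in 50 mM HEPES pH7.0, 50 mM MgCl2, 1 mM DTT. ATP was 0.060 mM for CDK2/Cyclin E1 and 0.015 mM for CDK1/Cyclin B1. Kinase was preincubated with compound 60 min, reacted 120 min at room temperature, and IC50 was fitted (four-parameter) from the 665/620 nm ratio.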
A general note: Time-resolved FRET reads energy transfer from a long-lived donor to a nearby acceptor.

The target in test [2] is CDK1/Cyclin B1 (Homo sapiens, UniProt P06493). In words: CDK1/Cyclin B1 Biochemical Assay (TR-FRET), 0.015 mM ATP. As to conditions: 0.15 μM Rb (Ser780)-biotin substrate, pH7.0, 60 min preincubation, 120 min reaction, room temperature. In a few lines: as §1

Each structure is given as a SMILES string. Where only a bound is given, the exact number is not on record here.

Sequence of CDK1/Cyclin B1 (P06493 whole entry): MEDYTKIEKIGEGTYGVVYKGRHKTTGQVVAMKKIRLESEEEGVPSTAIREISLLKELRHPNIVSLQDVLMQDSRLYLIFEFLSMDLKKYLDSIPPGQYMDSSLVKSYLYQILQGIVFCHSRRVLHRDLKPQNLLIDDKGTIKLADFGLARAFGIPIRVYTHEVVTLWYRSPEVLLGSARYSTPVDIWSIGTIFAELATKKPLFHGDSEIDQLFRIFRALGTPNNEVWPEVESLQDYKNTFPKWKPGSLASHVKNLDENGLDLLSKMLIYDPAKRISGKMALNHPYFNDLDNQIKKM
Sequence of CDK1/Cyclin B1 (P14635 whole entry partner): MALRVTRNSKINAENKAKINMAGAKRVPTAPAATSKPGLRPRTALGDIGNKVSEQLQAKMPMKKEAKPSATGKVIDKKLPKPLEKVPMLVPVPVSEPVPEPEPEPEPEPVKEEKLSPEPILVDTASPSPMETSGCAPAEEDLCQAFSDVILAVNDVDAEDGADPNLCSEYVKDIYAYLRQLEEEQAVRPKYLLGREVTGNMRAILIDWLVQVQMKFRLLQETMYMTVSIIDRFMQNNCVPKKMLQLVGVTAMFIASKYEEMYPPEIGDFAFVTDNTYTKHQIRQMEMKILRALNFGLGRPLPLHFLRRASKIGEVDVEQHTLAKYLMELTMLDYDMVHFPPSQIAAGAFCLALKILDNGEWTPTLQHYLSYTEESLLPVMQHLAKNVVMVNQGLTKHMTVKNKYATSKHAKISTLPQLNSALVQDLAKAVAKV

For orientation: IC50 means the point on the concentration scale where inhibition reaches its midpoint. Low readings indicate greater potency in that assay, high ones weaker potency in that assay. As for `CC(C)NC(=O)O[C@H]1CC[C@@H](c2cc(Nc3ccc4c(c3F)CN(C(C)C3CCOC3)S4(=O)=O)n[nH]2)C1` (relative stereo) [Example 115, cis-3-(3-((4-fluoro-1,1-dioxido-2-(1-(tetrahydrofuran-3-yl)ethyl)-2,3-dihydrobenzo[d]isothiazol-5-yl)amino)-1H-pyrazol-5-yl)cyclopentyl isopropylcarbamate], the IC50 in test [1] is 6 nM; in test [2] it was 407 nM.
For the compound `O=C(NC1CC2(CC2)C1)O[C@H]1CC[C@@H](c2cc(Nc3ccc4c(c3F)CNS4(=O)=O)n[nH]2)C1` (relative stereo) [Example 160, cis-3-(3-((4-fluoro-1,1-dioxido-2,3-dihydrobenzo[d]isothiazol-5-yl)amino)-1H-pyrazol-5-yl)cyclopentyl spiro[2.3]hexan-5-ylcarbamate], the half-inhibitory concentration (IC50) worked out at 105 nM in test [1] and 579 nM in test [2].
`CC(CC(F)(F)F)NC(=O)O[C@H]1CC[C@@H](c2cc(Nc3ccc4c(c3F)CNS4(=O)=O)n[nH]2)C1` (relative stereo) [Example 165, cis-3-(3-((4-fluoro-1,1-dioxido-2,3-dihydrobenzo[d]isothiazol-5-yl)amino)-1H-pyrazol-5-yl)cyclopentyl(4,4,4-trifluorobutan-2-yl)carbamate]: the IC50 in test [1] is 1.3 nM; in test [2] it was 49 nM.
As to `Cc1nc2c(cc1Nc1cc([C@@H]3CC[C@H](OC(=O)NC(C)C)C3)[nH]n1)CNS2(=O)=O` (relative stereo) [Example 396, cis-3-(3-((6-methyl-1,1-dioxido-2,3-dihydroisothiazolo[5,4-b]pyridin-5-yl)amino)-1H-pyrazol-5-yl)cyclopentyl isopropylcarbamate], the IC50 in test [1] turned out to be 9.7 nM; in test [2], 760 nM.
On the same counts, the results for `CC(C)NC(=O)O[C@H]1CC[C@@H](c2cc(Nc3ccc4c(c3F)CS(=O)(=O)N4CC(C)(C)O)n[nH]2)C1` (racemic) [Example 254, cis-3-(3-((4-fluoro-1-(2-hydroxy-2-methylpropyl)-2,2-dioxido-1,3-dihydrobenzo[c]isothiazol-5-yl)amino)-1H-pyrazol-5-yl)cyclopentyl isopropylcarbamate] are 10 nM and 249 nM.
Regarding `CC1(NC(=O)O[C@H]2CC[C@@H](c3cc(Nc4ccc5c(c4F)CS(=O)(=O)N5CC(F)(F)F)n[nH]3)C2)CC1` (single isomer, unassigned) [Example 264b, cis-3-(3-((4-fluoro-2,2-dioxido-1-(2,2,2-trifluoroethyl)-1,3-dihydrobenzo[c]isothiazol-5-yl)amino)-1H-pyrazol-5-yl)cyclopentyl(1-methylcyclopropyl)carbamate], the IC50 came to 1.1 nM in test [1] and 22 nM in test [2].
On the same counts, the results for `CC[C@H](C)NC(=O)O[C@H]1CC[C@@H](c2cc(Nc3ccc4c(c3Cl)CNS4(=O)=O)n[nH]2)C1` (relative stereo) [Example 41, cis-3-(3-((4-chloro-1,1-dioxido-2,3-dihydrobenzo[d]isothiazol-5-yl)amino)-1H-pyrazol-5-yl)cyclopentyl((S)-sec-butyl)carbamate] are 2.3 nM and 512 nM.
For `CCCNC(=O)O[C@H]1CC[C@@H](c2cc(Nc3ccc4c(c3Cl)CNS4(=O)=O)n[nH]2)C1` (single isomer, unassigned) [Example 39a, cis-3-(3-((4-chloro-1,1-dioxido-2,3-dihydrobenzo[d]isothiazol-5-yl)amino)-1H-pyrazol-5-yl)cyclopentyl propylcarbamate], in that order: 49 nM and 1360 nM.
Consider `CCCNC(=O)O[C@H]1CC[C@@H](c2cc(Nc3cc4c(cc3F)N(CCO)S(=O)(=O)C4)n[nH]2)C1` (relative stereo) [Example 297, cis-3-(3-((6-fluoro-1-(2-hydroxyethyl)-2,2-dioxido-1,3-dihydrobenzo[c]isothiazol-5-yl)amino)-1H-pyrazol-5-yl)cyclopentyl propylcarbamate], for which the IC50 in test [1] amounted to 38 nM; in test [2] it was 607 nM.
On the same counts, the results for `CC(C)NC(=O)O[C@H]1CC[C@@H](c2cc(Nc3ccc4c(c3)C(C)S(=O)(=O)N4)n[nH]2)C1` (single isomer, unassigned) [Example 384b, cis-3-(3-((3-methyl-2,2-dioxido-1,3-dihydrobenzo[c]isothiazol-5-yl)amino)-1H-pyrazol-5-yl)cyclopentyl isopropylcarbamate] are 3.9 nM and 191 nM.
Take `CC(C)NC(=O)O[C@H]1CC[C@@H](c2cc(Nc3cc4c(cc3F)N(C)S(=O)(=O)C4)n[nH]2)C1` (relative stereo) [Example 300, cis-3-(3-((6-fluoro-1-methyl-2,2-dioxido-1,3-dihydrobenzo[c]isothiazol-5-yl)amino)-1H-pyrazol-5-yl)cyclopentyl isopropylcarbamate]: the results for the IC50 in test [1] and in test [2] were 36 nM and 513 nM, respectively.
On the same counts, the results for `C[C@@H](CO)NC(=O)O[C@H]1CC[C@@H](c2cc(Nc3ccc4c(c3F)CNS4(=O)=O)n[nH]2)C1` (single isomer, unassigned) [Example 328b] are 31 nM and 1970 nM.
For `[2H]C([2H])([2H])N1c2ccc(Nc3cc([C@@H]4CC[C@H](OC(=O)NC(C)C)C4)[nH]n3)c(F)c2CS1(=O)=O` (single isomer, unassigned) [Example 267a, cis-3-(3-((4-fluoro-1-(methyl-d3)-2,2-dioxido-1,3-dihydrobenzo[c]isothiazol-5-yl)amino)-1H-pyrazol-5-yl)cyclopentyl isopropylcarbamate], in that order: 7.8 nM and 142 nM.
On the same counts, the results for `CC(NC(=O)O[C@H]1CC[C@@H](c2cc(Nc3ccc4c(c3)CS(=O)(=O)N4C)n[nH]2)C1)C1COC1` (relative stereo) [Example 235, cis-3-(3-((1-methyl-2,2-dioxido-1,3-dihydrobenzo[c]isothiazol-5-yl)amino)-1H-pyrazol-5-yl)cyclopentyl(1-(oxetan-3-yl)ethyl)carbamate] are 12 nM and 232 nM.
Regarding `O=C(NC1CCC1)O[C@H]1CC[C@@H](c2cc(Nc3ccc4c(c3F)CS(=O)(=O)N4)n[nH]2)C1` (single isomer, unassigned) [Example 399b], the IC50 was 3.8 nM in test [1] and 90 nM in test [2].
For `Cc1cc2c(cc1Nc1cc([C@@H]3CC[C@H](OC(=O)NC(C)C)C3)[nH]n1)CS(=O)(=O)N2C` (relative stereo) [Example 244, cis-3-(3-((1,6-dimethyl-2,2-dioxido-1,3-dihydrobenzo[c]isothiazol-5-yl)amino)-1H-pyrazol-5-yl)cyclopentyl isopropylcarbamate], in that order: 1060 nM and 7260 nM.
On the same counts, the results for `CCCNC(=O)O[C@H]1CC[C@@H](c2cc(Nc3ccc4c(c3)CS(=O)(=O)N4)n[nH]2)C1` [Example 195b] are 17 nM and 67 nM.
Consider `O=C(NC1CC2(CCC2)C1)O[C@H]1CC[C@@H](c2cc(Nc3ccc4c(c3F)CNS4(=O)=O)n[nH]2)C1` (relative stereo) [Example 151, cis-3-(3-((4-fluoro-1,1-dioxido-2,3-dihydrobenzo[d]isothiazol-5-yl)amino)-1H-pyrazol-5-yl)cyclopentyl spiro[3.3]heptan-2-ylcarbamate], for which the half-maximal inhibitory concentration (IC50) was found to be 80 nM in test [1] and 668 nM in test [2].
On to `CC(C)(CO)NC(=O)O[C@H]1CC[C@@H](c2cc(Nc3ccc4c(c3F)CNS4(=O)=O)n[nH]2)C1` (relative stereo) [Example 329, cis-3-(3-((4-fluoro-1,1-dioxido-2,3-dihydrobenzo[d]isothiazol-5-yl)amino)-1H-pyrazol-5-yl)cyclopentyl(1-hydroxy-2-methylpropan-2-yl)carbamate], for which the IC50 is 2.7 nM in test [1] and 175 nM in test [2].
Regarding `CCCNC(=O)O[C@H]1CC[C@@H](c2cc(Nc3cc(CO)c4c(c3F)CNS4(=O)=O)n[nH]2)C1` (relative stereo) [Example 366, cis-3-(3-((4-fluoro-7-(hydroxymethyl)-1,1-dioxido-2,3-dihydrobenzo[d]isothiazol-5-yl)amino)-1H-pyrazol-5-yl)cyclopentyl propylcarbamate], the IC50 in test [1] and in test [2] was over 10000 nM each time.
In the case of `CC(C)NC(=O)O[C@H]1CC[C@@H](c2cc(Nc3ccc4c(c3F)CN(C3CCN(C)C3=O)S4(=O)=O)n[nH]2)C1` (relative stereo) [Example 93, cis-3-(3-((4-fluoro-2-(1-methyl-2-oxopyrrolidin-3-yl)-1,1-dioxido-2,3-dihydrobenzo[d]isothiazol-5-yl)amino)-1H-pyrazol-5-yl)cyclopentyl isopropylcarbamate], the IC50 in test [1] worked out at 6.3 nM; in test [2], 531 nM.
For `CC(C)NC(=O)O[C@H]1CC[C@@H](c2cc(Nc3cc(F)c4c(c3)CS(=O)(=O)N4)n[nH]2)C1` (relative stereo) [Example 279, cis-3-(3-((7-fluoro-2,2-dioxido-1,3-dihydrobenzo[c]isothiazol-5-yl)amino)-1H-pyrazol-5-yl)cyclopentyl isopropylcarbamate], in that order: 0.7 nM and 43 nM.
`CC(C)NC(=O)O[C@@H]1CC[C@H](c2cc(Nc3ccc4c(c3)N(C(=O)OC(C)(C)C)CS4(=O)=O)n[nH]2)C1` (relative stereo) [Example 319, cis-tert-butyl 5-((5-(3-((isopropylcarbamoyl)oxy)cyclopentyl)-1H-pyrazol-3-yl)amino)benzo[d]thiazole-3 (2H)-carboxylate 1,1-dioxide]: the IC50 in test [1] was 85 nM; in test [2], 1750 nM.
